ChEMBL document CHEMBL3091442, “Synthesis and antitumor activity evaluation of maleopimaric acid N-aryl imide atropisomers” (Bioorg Med Chem Lett, 2013)

Experiments:
A549 = assay: Cytotoxicity against human A549 cells after 72 hrs by MTT assay; type: functional, cell-based; conditions: A549, 72 h
MGC-803 = assay: Cytotoxicity against human MGC803 cells after 72 hrs by MTT assay; type: functional, cell-based; conditions: MGC-803, 72 h
HepG2 = assay: Cytotoxicity against human HepG2 cells after 72 hrs by MTT assay; type: functional, cell-based; conditions: HepG2, 72 h
NCI-H460 [1] = assay: Cytotoxicity against human NCI-H460 cells after 72 hrs by MTT assay; type: functional, cell-based; conditions: NCI-H460, 72 h
NCI-H460 [2] = assay: Induction of apoptosis in human NCI-H460 cells assessed as late apoptotic cells at 45 uM after 24 hrs by Annexin V-FITC/propidium iodide staining-based flow cytometry (reference value: 0.8%); type: functional
NCI-H460 [3] = assay: Induction of apoptosis in human NCI-H460 cells assessed as early apoptotic cells at 45 uM after 24 hrs by Annexin V-FITC/propidium iodide staining-based flow cytometry (reference value: 1.5%); type: functional
NCI-H460 [4] = assay: Cell cycle arrest in human NCI-H460 cells assessed as accumulation at diploid G1 phase at IC50 after 48 hrs by propidium iodide staining-based FACS analysis (reference value: 68.60%); type: functional
NCI-H460 [5] = assay: Cell cycle arrest in human NCI-H460 cells assessed as accumulation at diploid G2 phase at IC50 after 48 hrs by propidium iodide staining-based FACS analysis (reference value: 8.14%); type: functional
NCI-H460 [6] = assay: Cell cycle arrest in human NCI-H460 cells assessed as accumulation at diploid S phase at IC50 after 48 hrs by propidium iodide staining-based FACS analysis (reference value: 23.27%); type: functional
HCT-116 = assay: Cytotoxicity against human HCT116 cells after 72 hrs by MTT assay; type: functional, cell-based; conditions: HCT-116, 72 h

SMILES	IC50 (A549)	IC50 (MGC-803)	IC50 (HepG2)	IC50 (NCI-H460 [1])	Activity (NCI-H460 [2])	Activity (NCI-H460 [3])	Activity (NCI-H460 [4])	Activity (NCI-H460 [5])	Activity (NCI-H460 [6])	IC50 (HCT-116)
O=c1[nH]cc(F)c(=O)[nH]1 [FLUOROURACIL]	20.1 µM	15.3 µM	19.4 µM	23.3 µM	6.5%	16.8%	71.93%	0%	28.07%	8.32 µM
CC(C)C1=C[C@]23CC[C@@H]4[C@](C)(CCC[C@@]4(C)C(=O)O)[C@H]2C[C@H]1[C@H]1C(=O)OC(=O)[C@H]13	81.2 µM	61.8 µM	> 100 µM	> 100 µM						98.7 µM
